Where two headings read alike, the source gives them in different places.

For assay [1], the target named is T1, human androgen receptor (AR) (Homo sapiens, UniProt P10275).
T1 construct: expressed in transfected cells; host or cells: CV-1 cells, transient transfection
T1 sequence (P10275 1-920): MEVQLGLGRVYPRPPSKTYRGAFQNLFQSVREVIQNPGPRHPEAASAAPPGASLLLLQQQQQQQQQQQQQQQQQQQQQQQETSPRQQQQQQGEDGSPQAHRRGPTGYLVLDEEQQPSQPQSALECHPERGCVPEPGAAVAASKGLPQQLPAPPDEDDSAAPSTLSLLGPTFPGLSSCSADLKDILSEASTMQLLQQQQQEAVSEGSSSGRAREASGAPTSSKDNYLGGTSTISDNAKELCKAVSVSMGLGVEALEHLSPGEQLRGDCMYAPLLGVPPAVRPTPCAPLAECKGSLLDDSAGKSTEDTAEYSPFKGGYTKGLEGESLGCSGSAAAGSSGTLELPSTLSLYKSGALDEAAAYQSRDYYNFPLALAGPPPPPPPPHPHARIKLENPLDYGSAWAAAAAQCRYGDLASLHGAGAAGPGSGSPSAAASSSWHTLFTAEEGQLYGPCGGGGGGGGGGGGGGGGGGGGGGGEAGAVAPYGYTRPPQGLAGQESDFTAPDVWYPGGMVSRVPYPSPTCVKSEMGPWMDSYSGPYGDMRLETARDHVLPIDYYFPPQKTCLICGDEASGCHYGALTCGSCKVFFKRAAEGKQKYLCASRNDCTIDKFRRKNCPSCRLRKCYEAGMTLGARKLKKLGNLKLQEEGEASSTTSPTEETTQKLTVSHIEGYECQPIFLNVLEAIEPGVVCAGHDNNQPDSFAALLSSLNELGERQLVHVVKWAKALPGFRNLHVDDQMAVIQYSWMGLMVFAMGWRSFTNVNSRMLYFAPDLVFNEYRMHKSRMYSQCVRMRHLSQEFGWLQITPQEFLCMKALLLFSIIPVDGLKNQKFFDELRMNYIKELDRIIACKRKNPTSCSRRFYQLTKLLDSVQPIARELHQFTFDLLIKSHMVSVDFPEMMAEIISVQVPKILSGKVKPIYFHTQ
Put plainly: Co-transfection assay, AR agonist and antagonist activity, CV-1 cells (pRShAR). It counts as cell-based. The settings on record: for AR Agonist CV-1 Cells Efficacy (%): relative to DHT; for AR Antagonist CV-1 Cells Efficacy (%): % maximal inhibition.

The target of a further assay is T2, human AR (Homo sapiens, UniProt P10275).
T2 construct: expressed in transfected cells; host or cells: COS-1 cells, transient transfection
T2 sequence (P10275 1-920): T1 sequence (P10275 1-920)
Put plainly: AR whole cell binding assay, transfected COS-1 cells, 3H-DHT.

The next assay addresses T3, human PR-B (Homo sapiens, UniProt P06401).
T3 construct: expressed in transfected cells; host or cells: CV-1 cells (African green monkey kidney fibroblasts), transient transfection
T3 sequence (P06401 1-933): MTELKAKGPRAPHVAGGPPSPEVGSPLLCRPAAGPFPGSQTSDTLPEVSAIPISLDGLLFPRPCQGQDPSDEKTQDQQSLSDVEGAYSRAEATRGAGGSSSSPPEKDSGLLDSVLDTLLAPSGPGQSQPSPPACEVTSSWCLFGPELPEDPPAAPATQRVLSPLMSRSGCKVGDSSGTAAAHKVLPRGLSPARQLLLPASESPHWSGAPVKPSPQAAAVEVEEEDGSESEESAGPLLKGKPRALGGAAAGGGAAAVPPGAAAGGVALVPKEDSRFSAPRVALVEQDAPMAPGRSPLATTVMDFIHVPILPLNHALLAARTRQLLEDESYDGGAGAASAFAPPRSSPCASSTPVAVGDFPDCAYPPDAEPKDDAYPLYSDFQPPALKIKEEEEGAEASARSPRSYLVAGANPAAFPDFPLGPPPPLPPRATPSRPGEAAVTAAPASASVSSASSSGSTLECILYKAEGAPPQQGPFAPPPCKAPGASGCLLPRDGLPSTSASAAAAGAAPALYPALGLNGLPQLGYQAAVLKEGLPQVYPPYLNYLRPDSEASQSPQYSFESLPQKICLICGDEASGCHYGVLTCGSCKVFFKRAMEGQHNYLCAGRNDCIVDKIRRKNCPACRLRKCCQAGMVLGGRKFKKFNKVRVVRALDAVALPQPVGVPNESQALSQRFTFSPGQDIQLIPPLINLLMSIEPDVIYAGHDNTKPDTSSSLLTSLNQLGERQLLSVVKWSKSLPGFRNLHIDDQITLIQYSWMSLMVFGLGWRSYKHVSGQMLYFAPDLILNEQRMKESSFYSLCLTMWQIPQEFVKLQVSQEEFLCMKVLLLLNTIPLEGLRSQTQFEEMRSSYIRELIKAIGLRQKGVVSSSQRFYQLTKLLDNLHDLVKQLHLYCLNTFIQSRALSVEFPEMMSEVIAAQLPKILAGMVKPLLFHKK
Put plainly: Co-transfection assay, PR agonist and antagonist activity, CV-1 cells.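 For all read-outs here: luciferase reporter driven by a hormone response element, co-transfected with human PR-B into CV-1 monkey kidney cells, agonists raise and antagonists lower the reporter signal.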 It is filed as cell-based. The settings on record: for IC50: read-out: PR Antagonist CV-1 Cells Potency.

The target of assay [2] is T4, human progesterone receptor A form (PR-A) (Homo sapiens, UniProt P06401).
T4 sequence (P06401 1-769 isoform P06401-2): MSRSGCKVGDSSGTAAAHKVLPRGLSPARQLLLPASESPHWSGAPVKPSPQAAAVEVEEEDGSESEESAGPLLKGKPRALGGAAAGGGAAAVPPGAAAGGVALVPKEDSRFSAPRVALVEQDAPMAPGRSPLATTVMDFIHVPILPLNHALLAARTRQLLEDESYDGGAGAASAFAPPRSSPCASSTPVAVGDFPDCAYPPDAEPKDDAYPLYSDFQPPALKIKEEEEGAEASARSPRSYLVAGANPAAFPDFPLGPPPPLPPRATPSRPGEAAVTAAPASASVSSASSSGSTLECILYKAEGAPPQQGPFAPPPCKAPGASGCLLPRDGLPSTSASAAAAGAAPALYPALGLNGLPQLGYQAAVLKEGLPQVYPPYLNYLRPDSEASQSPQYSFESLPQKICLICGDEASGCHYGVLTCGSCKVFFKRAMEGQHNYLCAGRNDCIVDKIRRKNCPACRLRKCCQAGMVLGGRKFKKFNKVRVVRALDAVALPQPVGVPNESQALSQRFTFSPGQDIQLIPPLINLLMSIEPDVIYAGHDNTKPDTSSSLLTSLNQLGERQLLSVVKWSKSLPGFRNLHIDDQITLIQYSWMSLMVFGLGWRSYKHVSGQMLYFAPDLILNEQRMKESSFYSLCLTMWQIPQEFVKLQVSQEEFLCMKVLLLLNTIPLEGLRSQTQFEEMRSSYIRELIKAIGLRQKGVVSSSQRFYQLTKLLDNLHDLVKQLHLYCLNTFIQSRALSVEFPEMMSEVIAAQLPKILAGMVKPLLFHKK
Put plainly: PR binding assay, baculovirus extract, [3H] progesterone.

Assay [3] concerns uterine wet weight in ovariectomized Sprague-Dawely rats. Put plainly: Uterine wet weight assay (PR agonists). Conditions: MPA and Compound 210 at 0.3, 1.0 and 3.0 mg/rat; Compound 163 at 3 mg/rat. It is filed as in vivo, rat. From the text: The effectiveness of selected compounds of the present invention as PR agonists was investigated in the well recognized uterine wet weight assay, as described in G. J. Marcus, “Mitosis in the rat uterus during the estrous cycle, early pregnancy and early pseudopregnancy”, 10 Biol. Reprod., 447 (1974), S. […] J. Obstet. […] I. Dorfman, “Estrogens” (Ch. 2) and “Antiestrogens” (Ch. 3). in Methods in Hormone Research, ed. R. I. Dorfman, Academic Press, New York, New York, pp101-130 (1969), the disclosures of which are herein incorporated by reference. Four to five week old, ovariectomized, Sprague-Dawely rats (Harlan-Sprague-Dawely, Indianapolis, Ind.) were obtained 1 week after surgery and allowed to acclimate for an additional week after shipment. […] Louis, Mo.) a synthetic estrogen agonist, were fully dissolved in purified sesame oil (Croda, Parsippany, N.J.). […] Additional control groups of rats were administered estrone or vehicle (i.e. sesame oil) alone. Animals were sacrificed on the fourth day of the experiment.

Another assay has as its system PR, AR, ER, GR and MR. Put plainly: cis-trans or co-transfection assay, steroid receptor panel (cross-reactivity). Conditions: as seen in the Tables. It counts as cell-based, human.
Setting [4] is: read-out: AR Agonist CV-1 Cells Potency, Table 2, agonist mode, EC50.
[5] abbreviates: read-out: AR Agonist CV-1 Cells Potency, agonist mode, EC50.

A word on the Ki: it is a dissociation constant, usually derived from enzyme kinetics or from competition with a known ligand. With `CC1=CC(C)(C)Nc2cc3oc(=O)cc(C(F)(F)C(F)(F)F)c3cc21` [Compound 256, 1,2-Dihydro-2,2,4-trimethyl-6-(1,1,2,2,2-pentafluoroethyl)-8-pyranono[5,6-g]quinoline], the EC50 in assay [1] and in assay [1] (setting [4]) was greater than 10000 nM in each case. In assay [1], this molecule came in with an IC50 of 62 nM. Further, the “AR Agonist CV-1 Cells Efficacy (%)” value in assay [1] (Table 2, agonist mode) was “na (na = not active (i.e. efficacy of <20 and potency of >10,000))”; in assay [1] (agonist mode), “na (na = not active (i.e. efficacy of <20 and potency of >10,000))”. Besides, in assay [1] (Table 2, antagonist mode), the “AR Antagonist CV-1 Cells Efficacy (%)” value was 91%. For the same molecule, on human AR, affinity was put at a Ki of 4500 nM.

For the molecule `CCC1CCNc2cc3oc(=O)cc(C(F)(F)F)c3cc21` (racemic) [Compound 414, (R/S)-4-Ethyl-1,2,3,4-tetrahydro-6-trifluoromethyl-8-pyranono[5,6-g]quinoline], in assay [1], the EC50 was found to be 1 nM. Besides, the IC50 in assay [1] is greater than 10000 nM; in assay [1] (read-out: AR Antagonist CV-1 Cells Potency, Table 2, antagonist mode, IC50), greater than 10000 nM. For the same molecule, the “AR Agonist CV-1 Cells Efficacy (%)” value in assay [1] (Table 2, agonist mode) was found to be 118%. For the same molecule, the “AR Antagonist CV-1 Cells Efficacy (%)” value in assay [1] (Table 2, antagonist mode) was “na (na = not active (i.e. efficacy of <20 and potency of >10,000))”; in assay [1] (antagonist mode, DHT at its EC50), “na (na = not active (i.e. efficacy of <20 and potency of >10,000))”. This molecule also yielded a Ki at human AR of 0.3 nM.

`CC1=CC(C)(C)Nc2ccc3c(c21)C(c1ccc(Cl)cc1)Oc1ccccc1-3` (racemic) [Compound 163, (R/S)-5-(4-Chlorophenyl)-1,2-dihydro-2,2,4-trimethyl-5H-chromeno[3,4-f]quinoline]: the EC50 on human PR-B (agonist mode, EC50, read-out: PR Agonist CV-1 Cells Potency) stood at 15 nM. Moreover, the IC50 on human PR-B stood at 3620 nM. In addition, in assay [2] (read-out: PR Binding Ki), the Ki was determined as 1 nM. In addition, the “effect on uterine wet weight when co-administered with estrone” value in assay [3] is “decreased by approximately half”. Further, the “steroid receptor selectivity profile” value in the assay with PR, AR, ER, GR and MR is reported as “highly selective PR agonists”.

As to `CC1C(=O)C(C)(C)Nc2cc3[nH]c(=O)cc(C(F)(F)F)c3cc21` (racemic) [Compound 418, (R/S)-1,2,3,4-Tetrahydro-6-trifluoromethyl-2,2,4-trimethyl-8-pyridono[5,6-f]-3-quinolinone], the EC50 in assay [1] and in assay [1] (setting [5]) was greater than 10000 nM throughout. This molecule also yielded an IC50 in assay [1] of 200 nM. Also, the “AR Agonist CV-1 Cells Efficacy (%)” value is “na (na = not active (i.e. efficacy of <20 and potency of >10,000))” in assay [1] (Table 2, agonist mode); “na (na = not active (i.e. efficacy of <20 and potency of >10,000))” in assay [1] (agonist mode). For the same molecule, the “AR Antagonist CV-1 Cells Efficacy (%)” value in assay [1] (Table 2, antagonist mode) came to 63%. Besides, at human AR (competition with 1 nM 3H-DHT, COS-1 whole cells, three hours at 37° C., read-out: AR Binding Ki), the inhibition constant (Ki) was determined as 1000 nM.

Consider `CC1=CC(C)(C)N(C)c2cc3oc(=O)cc(C(F)(F)F)c3cc21` [Compound 265, 1,2-Dihydro-1,2,2,4-tetramethyl-6-trifluoromethyl-8-pyranono[5,6-g]quinoline], for which the EC50 in assay [1] and in assay [1] (setting [4]) was greater than 10000 nM throughout. This molecule had an IC50 in assay [1] of 56 nM. Besides, the “AR Agonist CV-1 Cells Efficacy (%)” value is “na (na = not active (i.e. efficacy of <20 and potency of >10,000))” in assay [1] (Table 2, agonist mode); “na (na = not active (i.e. efficacy of <20 and potency of >10,000))” in assay [1] (agonist mode). Moreover, the “AR Antagonist CV-1 Cells Efficacy (%)” value in assay [1] (Table 2, antagonist mode) is on record as 78%. For the same molecule, on human AR, the affinity corresponds to a Ki of 23 nM.

With `CC1CC(C)(C)Nc2cc3oc(=O)cc(-c4ccoc4)c3cc21` (racemic) [Compound 405, (R/S)-5-(3-Furyl)-1,2,3,4-tetrahydro-2,2,4-trimethyl-8-pyranono[5,6-g]quinoline], the EC50 in assay [1] and in assay [1] (setting [5]) was greater than 10000 nM throughout. Also, the IC50 in assay [1] came to 77 nM. Further, the “AR Agonist CV-1 Cells Efficacy (%)” value in assay [1] (Table 2, agonist mode) is “na (na = not active (i.e. efficacy of <20 and potency of >10,000))”; in assay [1] (agonist mode), “na (na = not active (i.e. efficacy of <20 and potency of >10,000))”. The “AR Antagonist CV-1 Cells Efficacy (%)” value in assay [1] (Table 2, antagonist mode) is 89%. In addition, the Ki on human AR was 6 nM.

`CC1=CC(C)(C)Nc2cc3c(cc21)-c1ccc(F)cc1C3` [Compound 124, 8-Fluoro-1,2-dihydro-2,2,4-trimethylindeno[1,2-g]quinoline]: the EC50 on human PR-B turned out to be 1600 nM. For the same molecule, the “PR Agonist CV-1 Cells Efficacy (%)” value on human PR-B (agonist mode, percent maximal response relative to reference agonist progesterone) turned out to be 74%. For the same molecule, the “PR Antagonist CV-1 Cells Efficacy (%)” value on human PR-B (antagonist mode, progesterone at its EC50, % maximal inhibition) is recorded as 36%. Besides, on human PR-B (antagonist mode, progesterone at its EC50, IC50), the IC50 was determined as 10 nM. In addition, in assay [2], the Ki was determined as 4 nM. In addition, the “steroid receptor selectivity profile” value in the assay on PR, AR, ER, GR and MR is on record as “highly selective PR antagonists”.

The values are drawn from patent US6448405B1, “Steroid receptor modulator compounds and methods” (Ligand Pharmaceuticals Incorporated, priority 1994, dated 2002).
